Test results: patent publication US20050002868A1, “Method of treatment of a female suffering from androgen insufficiency” (Acrux DDS Pty Ltd., priority 2003, published 2005)

Test: Open label, randomised two-way cross-over pharmacokinetic study of free serum testosterone after daily transdermal spray for 5 days
Format: in vivo, women
Procedure: The study was a single centre, open label pharmacokinetic study, with a randomised, two-way, cross-over design. The two treatment periods were 5 days with an eight day washout between treatments. Intensive blood sampling was performed on day 5 of each treatment period for pharmacokinetic analysis. The treatments consisted of daily application of 2×91 μL sprays for 5 days, either applied to the abdomen or forearm. Free serum testosterone concentration profiles were measured over 24 hours after daily administration of transdermal testosterone for 5 days to 6 healthy surgically menopausal women stabilized on oral oestrogen therapy. HPLC separation (followed by RIA) and equilibrium dialysis were used to measure free testosterone (Esoterix Inc.).

C[C@]12CC[C@H]3[C@@H](CCC4=CC(=O)CC[C@@]43C)[C@@H]1CC[C@@H]2O [testosterone]
average serum concentrations of free testosterone, forearm compared with abdomen (application to the forearm, day 5, FIG. 1): significantly higher
Steady-state concentrations of free testosterone (daily application for 5 days, abdomen or forearm): attained on day 5
variation of free testosterone serum concentrations, abdomen compared with forearm (dose application to the abdomen, day 5, FIG. 1): considerably less variation
